Experimental data taken from US11801210B2, “Retinol replacement in skin treatment” (SYMRISE AG, priority 2018, dated 2023).

Key:
[1] = tested on: three-dimensional (3D) epidermis model (keratinocytes); assay: 3D epidermis model, thickness of the epidermis (H&E and Ki67 stained sections); format: cell-based; settings: 0.01 μM; for Thickness (whole) / Thickness (without stratum corneum): epidermis in stained sections
Procedure: With such 3D assays significant information is obtained about the complex stratification and terminal differentiation process of keratinocytes in a multilayered epidermal tissue with barrier functionality.
Furthermore, paraffin sectioning and a H&E and Ki67 staining was performed. The thickness of the epidermis in the stained sections was measured and compared between MDI 101, all-trans Retinol, all in a concentration of 0.01 μM and the DMSO control (FIG. 1).

[2] = Cytotoxicity assay (TOX8 kit); format: cell-based, mouse; settings: mouse, 3T3 swiss albino mouse fibroblasts; 3T3 fibroblasts, 48 h treatment; concentration in medium lethal for 20% of living cells (80% viability)
Procedure: (§1) The TOX8 (Sigma Aldrich) Kit was used to determine cytotoxicity retinoic acid, 3,3-dimethyl-2-oxobutyl ester (MDI 101) on 3T3 swiss albino mouse fibroblasts. The 3T3 were cultivated in DMEM medium (Capricorn) including 10% FBS, 1% Penicillin/Streptomycin and 100 nM sodium selenite at 37° C. and 5% CO2. For the cytotoxicity experiment, 3T3 were seeded into 96-well microtiter plate. After 24 hours incubation and a confluence of 30 to 40% the cells were treated with MDI 101 in four different concentrations for 48 h. Test substance was pre-diluted in DMSO, further dilutions were performed in equal medium with 5% FBS. After 48 h a microscopic estimation was carried out and the cells were incubated with TOX8-Kit for two hours at 37° C. and 5% CO2. The absorbance of a converted dye was measured by spectrophotometry at a wavelength of 600 nm. Bioreduction of the dye reduces the amount of its oxidized form (blue) and concomitantly increases the fluorescent intermediate (red), wherein the mechanism and applicability of the test is independent of the cell type. Cell viability was analyzed relative to the solvent-control. The inhibitory concentrations for 50% viability (IC50) and 80% (IC20) were calculated.
(§2) The specific concentration of MDI 101 in the cell culture medium, which is lethal for 20% (IC20) and for 50% (IC50) of living cells was determined: […]

[3] = tested on: 3T3 swiss albino mouse fibroblasts; assay: Cytotoxicity assay (TOX8 kit); format: cell-based; settings: Mus musculus, Fibroblast; 3T3 fibroblasts, 48 h treatment; concentration in medium lethal for 50% of living cells
Procedure: as §1, §2

[4] = ABTS+ assay, anti-oxidative capacity; format: biochemical; settings: 10 min at 30° C., 734 nm
Procedure: For the determination of the anti-oxidative capacity, the ABTS+-Assay was performed. The assay principle bases on the reduction and the involved decolourization of the green coloured cationic radical 2,2′-Azinobis(3-ethylbenzothiazoline 6-sulfonic acid) (ABTS+) by antioxidants. The decolourization can be measured spectrophotometrically at 734 nm.
The determination of the anti-oxidative capacity is performed in 96-well microplates from Nunc (Wiesbaden, Germany) and with the microplate reader “Spark” from Tecan (Crailsheim, Germany).
Samples were incubated for 10 min at 30° C. with the 2,2′-Azinobis-(3-ethylbenzothiazoline-6-sulfonate (ABTS+) radical cation (Sigma, St. Louis, USA) prepared by reaction of ABTS+ with potassium persulfate. As a positive control Trolox is always co-tested. The degree of decolourization was determined spectrophotometrically at 734 nm by […]. Results are mean values from 2 independent experiments with quadruple determinations each.
The antioxidative capacity is expressed in IC50 values (concentration that scavenges 50% of the cationic radical relative to the untreated ABTS+ solution), which can be determined by a trend calculation.

[5] = tested on: intracellular radicals (reactive oxygen species, ROS) in cells; assay: Dichlorofluorescein (DCF) assay, oxidative stress; format: cell-based; settings: for ROS mean value / ROS reduction: 24 h incubation, relative to control
Procedure: For the quantification of intracellular radicals, the dichlorofluorescein (DCF) assay was performed. […] By intracellular esterases and oxidation, the nonfluorescent H2DCFDA is converted to the highly fluorescent 2′,7′-dichlorofluorescein (DCF). The nonfluorescent fluorescin (2′,7′-dichlorofluorescein diacetate (DCFH-DA) pass the cell membranes. In the cytoplasm, it is splitted by intracellular esterases and cannot leave out of the cell in this form. The oxidation by intracellularly existing ROS (reactive oxygen species) modifies the molecule so that will become DCF and emit fluorescence.
Determination of the anti-oxidative capacity is performed in 96-well microplates from Nunc (Wiesbaden, Germany) and with the microplate reader “Spark” from Tecan (Crailsheim, Germany).
Cells are seeded in a black 96 well microplate with transparent bottom and incubated at 37° C. After 24 hours the supernatant is decanted and fresh media with 0.1% FBS is succeded. Further 24 hours later the supernatant is decanted again and the test samples are added and incubated for 24 hours. Varying concentrations of MDI 101 in the cell culture medium were tested. As a positive control Trolox is always co-tested. Then the DCF Assay is performed and the fluorescence is measured from bottom of well at EX/EM 485/528 nm. The antioxidative capacity is expressed in percent, which can be determined by rule of proportion in combination with the control.

cells (proliferation) = assay: CyQUANT Direct Cell Proliferation Assay; format: cell-based; settings: 0.00005 mM; 72 hours; media with 6% FBS
Procedure: To evaluate the pro-proliferative activity of MDI 101, the CyQUANT® Direct Cell Proliferation Assay was performed. The CyQUANT® Direct assay is based on a cell-permeant DNA-binding dye in combination with a background suppression reagent. As DNA content is highly regulated, cell number estimates are very accurate. The masking dye blocks staining of dead cells and cells with compromised cell membranes, causing only staining of healthy cells. Therefore, the CyQUANT® Direct assay measures proliferation as well as cytotoxicity. The fluorescence can be measured spectrophotometrically from bottom of well with standard green filter sets or wavelengths (EX/EM 508/527 nm).
The proliferation capacity is performed in black 96-well microplates from Corning (Germany) and with the microplate reader “Spark” from Tecan (Crailsheim, Germany).
Cells are seeded in a black 96 well microplate with transparent bottom and incubated at 37° C. and 5% CO2. After 24 hours the supernatant is decanted and the samples are added in fresh media with 6% FBS. As a positive control KGF is always co-tested. […] Then the CyQUANT® Direct assay is performed and the fluorescence is measured from bottom of well at EX/EM 508/527 nm.
The proliferation probability is expressed in percent, which can be determined by rule of proportion in combination with the control.

[6] = Solubility and recrystallization in o/w emulsions (microscopy, polarized light); format: physicochemical
Procedure: Two pre-blends, A1 and A2, both containing 2.5 w/w % of Hydroxypinacolone Retinoate (MDI 101) were produced according to the above recipe. Three o/w emulsions (A, B and C) according to the following recipe were prepared: Heat Phases A and C separately up to 80° C. Disperse Phase B in A. Add Phase C to AB and emulsify by using an Ultra Turrax Stirrer (3 min, 6000 rpm). Add Phase D and neutralize. Allow to cool by using a vane stirrer. The emulsions were equal, except for the addition of MDI 101. […] As the pre-blends contain 2.5 wt.-% MDI 101, the final concentration of MDI 101 in the emulsions A, B and C was 0.05 wt.-% in all emulsions.

| SMILES | Thickness (whole) [1] [μm] | Thickness (without stratum corneum) [1] [μm] | IC20 at 48 h [2] [µM] | IC50 [3] [µM] | Mean inhibition ([4]; 2 μM) [%] | Mean inhibition ([4]; 25 μM) [%] | Mean inhibition ([4]; 50 μM) [%] | Mean inhibition ([4]; 250 μM) [%] | Mean inhibition ([4]; 500 μM) [%] | ROS mean value ([5]; 0.002 μM) [%] | ROS reduction ([5]; 0.002 μM) [%] | ROS mean value ([5]; 0.02 μM) [%] | ROS reduction ([5]; 0.02 μM) [%] | Anti-oxidative effect (in words) ([5]; concentrations which should have no cytotoxic effect) | Mean proliferation compared to control (100%) (cells (proliferation)) [%] | Effect on the thickness of the epidermis (in words) ([1]; compared with all-trans Retinol in the same concentration) | Solubility after pre-solving in diisopropyl adipate ([6]; pre-solved in diisopropyl adipate, recrystallization could be avoided) | Solubility in cosmetic or pharmaceutical compositions (e.g. emulsions) ([6]; sole powder) |
| --- | --- | --- | --- | --- | --- | --- | --- | --- | --- | --- | --- | --- | --- | --- | --- | --- | --- | --- |
| CC1=C(/C=C/C(C)=C/C=C/C(C)=C/CO)C(C)(C)CCC1 [All-trans Retinol, reference compound] | 150 | 85 |  |  |  |  |  |  |  |  |  |  |  |  |  |  |  |  |
| CC1=C(/C=C/C(C)=C/C=C/C(C)=C/C(=O)OCC(=O)C(C)(C)C)C(C)(C)CCC1 [MDI 101, retinoic acid, 3,3-dimethyl-2-oxobutyl ester] | 157 | 112.5 | 171 | 263 | 8.8 | 17.7 | 27.3 | 83.3 | 96.4 | 75 | 25 | 23 | 77.5 | anti-oxidative effect | 125 | better than the effect of all-trans Retinol | strongly improved the solubility | poor solubility |
